Results taken from patent publication US8962608B2, “Cycloalkylnitrile pyrazole carboxamides as janus kinase inhibitors” (Merck Sharp & Dohme Corp., priority 2011, dated 2015).

Assays:
[1] = biological target: JAK2 (recombinant purified GST-tagged catalytic domain) (Homo sapiens (Human), UniProt O60674); assay: biochemical;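 further: biochemical JAK kinase assay with HTRF detection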
[2] = biological target: JAK1 (recombinant purified GST-tagged catalytic domain) (Homo sapiens (Human), UniProt P23458); assay: biochemical;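 further: biochemical assay with HTRF read-out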
Sequence of JAK1 (recombinant purified GST-tagged catalytic domain) (P23458 875-1153): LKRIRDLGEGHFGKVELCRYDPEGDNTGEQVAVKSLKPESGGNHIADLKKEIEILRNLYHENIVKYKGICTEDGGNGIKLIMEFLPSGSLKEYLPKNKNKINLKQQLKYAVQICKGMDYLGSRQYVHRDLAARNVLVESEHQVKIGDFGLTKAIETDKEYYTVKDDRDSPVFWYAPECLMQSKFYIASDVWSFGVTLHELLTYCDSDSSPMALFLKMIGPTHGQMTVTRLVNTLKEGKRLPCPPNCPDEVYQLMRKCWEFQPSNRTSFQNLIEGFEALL

Sequence of JAK2 (recombinant purified GST-tagged catalytic domain) (O60674 849-1124): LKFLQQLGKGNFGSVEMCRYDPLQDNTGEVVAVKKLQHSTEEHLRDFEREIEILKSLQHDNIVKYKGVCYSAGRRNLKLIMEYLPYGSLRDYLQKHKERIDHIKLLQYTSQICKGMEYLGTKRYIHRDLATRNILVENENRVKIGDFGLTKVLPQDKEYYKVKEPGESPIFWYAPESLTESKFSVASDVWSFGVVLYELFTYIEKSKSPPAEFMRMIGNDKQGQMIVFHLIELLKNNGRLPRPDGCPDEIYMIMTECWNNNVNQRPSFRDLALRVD

IC50 [1] [nM]	IC50 [2] [nM]	SMILES
180	10	CC1(O)CN(C(=O)[C@H]2CC[C@H](n3cc(C(N)=O)c(Nc4ccc(Cl)cc4)n3)[C@@H](C#N)C2)C1 (single isomer, unassigned) [Example 35-30, 3-[(4-chlorophenyl)amino]-1-{(1S,2S,4S or 1R,2R,4R)-2-cyano-4-[(3-hydroxy-3-methylazetidin-1-yl)carbonyl]cyclohexyl}-1H-pyrazole-4-carboxamide]
2	0.5	CC(C)(c1ccc(Nc2nn([C@H]3CC[C@H](O)C[C@@H]3C#N)cc2C(N)=O)cc1)C(O)C(F)(F)F (single isomer, unassigned) [Example 33-15, 1-[(1S,2S,4S or 1R,2R,4R)-2-cyano-4-hydroxycyclohexyl]-3-{[4-(3,3,3-trifluoro-(2R or 2S)-hydroxy-1,1-dimethylpropyl)phenyl]amino}-1H-pyrazole-4-carboxamide]
19	3	CS(=O)(=O)C1CN(C(=O)[C@@H]2CC[C@@H](n3cc(C(N)=O)c(Nc4ccc(Cl)cc4)n3)[C@H](C#N)C2)C1 (single isomer, unassigned) [Example 35-8, 3-[(4-chlorophenyl)amino]-1-[(1R,2R,4R or 1S,2S,4S)-2-cyano-4-{[3-(methylsulfonyl)azetidin-1-yl]carbonyl}cyclohexyl]-1H-pyrazole-4-carboxamide]
65	21	N#C[C@H]1C[C@@H](O)CC[C@@H]1n1cc(C(N)=O)c(Nc2ccc(C(F)(F)F)nc2)n1 (single isomer, unassigned) [Example 33-9, 1-[(1S,2S,4S or 1R,2R,4R)-2-cyano-4-hydroxycyclohexyl]-3-{[6-(trifluoromethyl)pyridin-3-yl]amino}-1H-pyrazole-4-carboxamide]
33	8	N#C[C@H]1C[C@@H](O)CC[C@@H]1n1cc(C(N)=O)c(Nc2ccc(C(F)F)nc2)n1 (single isomer, unassigned) [Example 33-8, 1-[(1S,2S,4S or 1R,2R,4R)-2-cyano-4-hydroxycyclohexyl)-3-{I6-(difluoromethyl)pyridin-3-yl]amino}-1H-pyrazole-4-carboxamide]

The remaining lines, values behind:

SMILES	IC50 [1] [nM]	IC50 [2] [nM]
CC1(O)CN([C@@H]2CC[C@H](n3cc(C(N)=O)c(Nc4ccc(C(F)(F)F)cc4)n3)[C@@H](C#N)C2)C1 (single isomer, unassigned) [Example 28-199, 1-[(1S,2S,4R or 1R,2R,4S)-2-cyano-4-(3-hydroxy-3-methylazetidin-1-yl)cyclohexyl]-3-{[4-(trifluoromethyl)phenyl]amino}-1H-pyrazole-4-carboxamide]	9	0.3
CC(C)(CO)N[C@H]1CCC(n2cc(C(N)=O)c(Nc3ccc(Cl)cc3)n2)[C@@H](C#N)C1 (single isomer, unassigned) [Example 28-210, 3-[(4-chlorophenyl)amino]-1-{(1S,2S,4S or 1R,2R,4R)-2-cyano-4-[(2-hydroxy-1,1-dimethylethyl)amino]cyclo-hexyl}-1H-pyrazole-4-carboxamide]	41	1
CN[C@@H]1CCC(n2cc(C(N)=O)c(Nc3ccc(F)cc3)n2)[C@@H](C#N)C1 (mixture of isomers) [Example 27-3, 1-[(1S,2S,4R and 1R,2R,4S)-2-cyano-4-(methylamino)cyclohexyl]-3-[(4-fluorophenyl)amino]-1H-pyrazole-4-carboxamide]	25	0.8
N#C[C@H]1CCCC[C@@H]1n1cc(C(N)=O)c(Nc2ccc(Cl)cc2)n1 (single isomer, unassigned) [Example 17-108, 3-[(4-chlorophenyl)amino]-1-[(1S,2S or 1R,2R)-2-cyanocyclohexyl]-1H-pyrazole-4-carboxamide]	120	8
N#C[C@H]1CC(N2CC[C@H](F)C2)CC[C@@H]1n1cc(C(N)=O)c(Nc2ccc(S(=O)(=O)C(F)(F)F)cc2)n1 (single isomer, unassigned) [Example 28-158, 1-{(1S,2S or 1R,2R)-2-cyano-4-[(3S)-3-fluoropyrrolidin-1-yl]cyclohexyl}-3-({4-[(trifluoro-methyl)sulfonyl]phenyl}amino)-1H-pyrazole-4-carboxamide]	17	1
CC1(C)CN([C@H]2CC[C@H](n3cc(C(N)=O)c(Nc4ccccc4)n3)[C@@H](C#N)C2)C1 (single isomer, unassigned) [Example 28-138, 1-[(1S,2S,4S or 1R,2R,4R)-2-cyano-4-(3,3-dimethylazetidin-1-yl)cyclohexyl]-3-(phenylamino)-1H-pyrazole-4-carboxamide]	40	0.9
C[C@H](N[C@@H]1CC[C@H](n2cc(C(N)=O)c(Nc3ccc(Cl)cc3)n2)[C@@H](C#N)C1)C1CC1 (single isomer, unassigned) [Example 28-98, 3-[(4-chlorophenyl)amino]-1-[(1S,2S,4R or 1R,2R,4S)-2-cyano-4-{[(1S)-1-cyclopropylethyl]amino}cyclo-hexyl]-1H-pyrazole-4-carboxamide]	216	4
CN(CC1(C)COC1)[C@H]1CCC(n2cc(C(N)=O)c(Nc3ccc(Cl)cc3)n2)[C@@H](C#N)C1 (single isomer, unassigned) [Example 28-219, 3-[(4-chlorophenyl)amino]-1-[(1S,2S,4S or 1R,2R,4R)-2-cyano-4-{methyl[(3-methyloxetan-3-yl)methyl]amino}cyclohexyl]-1H-pyrazole-4-carboxamide]	11	1
CN(C)[C@H]1CC[C@H](n2cc(C(N)=O)c(Nc3ccc(Cl)c(F)c3)n2)[C@@H](C#N)C1 (single isomer, unassigned) [Example 28-41, 3-[(4-chloro-3-fluorophenyl)amino]-1-[(1S,2S,4S or 1R,2R,4R)-2-cyano-4-(dimethylamino)cyclohexyl]-1H-pyrazole-4-carboxamide]	58	2
N#C[C@H]1CCCC[C@@H]1n1cc(C(N)=O)c(Nc2ccc(S(=O)(=O)C(F)(F)F)c(CO)c2)n1 (racemic) [Example 17-17, 1-[(1S,2S and 1R,2R)-2-cyanocyclohexyl]-3-({3-(hydroxymethyl)-4-[(trifluoromethyl)sulfonyl]phenyl}amino)-1H-pyrazole-4-carboxamide]	5	1
COC(=O)c1cncc(Nc2nn([C@H]3CCCC[C@@H]3C#N)cc2C(N)=O)c1 (single isomer, unassigned) [Example 17-72, methyl 5-({4-carbamoyl-1-[(1R,2R or 1S,2S)-2-cyanocyclohexyl]-1H-pyrazol-3-yl}amino)pyridine-3-carboxylate]	89	12
N#C[C@H]1C[C@H](O)CC[C@@H]1n1cc(C(N)=O)c(Nc2ccc(OC(F)(F)F)cc2)n1 (single isomer, unassigned) [Example 24, 1-((1S,2S or 1R,2R)-2-cyano-4(R)-hydroxycyclohexyl)-3-((4-(trifluoromethoxy)phenyl)amino)-1H-pyrazole-4-carboxamide]	61	6
COCC(C)N(C)[C@H]1CCC(n2cc(C(N)=O)c(Nc3ccc(Cl)cc3)n2)[C@@H](C#N)C1 (single isomer, unassigned) [Example 28-240, 3-[(4-chlorophenyl)amino]-1-[(1S,2S,4S or 1R,2R,4R)-2-cyano-4-{[(1S or 1R)-2-methoxy-1-methylethyl](methyl)ami-no}cyclohexyl]-1H-pyrazole-4-carboxamide]	27	2
N#Cc1ncc(Nc2nn([C@H]3CCCC[C@@H]3C#N)cc2C(N)=O)cc1F (single isomer, unassigned) [Example 17-79, 1-[(1R,2R or 1S,2S)-2-cyanocyclohexyl]-3-[(6-cyano-5-fluoropyridin-3-yl)amino]-1H-pyrazole-4-carboxamide]	40	7
CC(C)(O)C1CN([C@H]2CC[C@H](n3cc(C(N)=O)c(Nc4ccc(C(F)(F)F)cc4)n3)[C@@H](C#N)C2)C1 (single isomer, unassigned) [Example 28-28, 1-{(1S,2S,4S or 1R,2R,4R)-2-cyano-4-[3-(1-hydroxy-1-methylethyl)azetidin-1-yl]cyclohexyl}-3-{[4-(trifluoromethyl)phenyl]amino}-1H-pyrazole-4-carboxamide]	77	3
N#C[C@H]1C[C@@H](O)CC[C@@H]1n1cc(C(N)=O)c(Nc2ccc(C(F)(F)F)cc2)n1 (single isomer, unassigned) [Example 33-4, 1-[(1S,2S,4S or 1R,2R,4R)-2-cyano-4-hydroxycyclohexyl]-3-{[4-(trifluoromethyl)phenyl]amino}-1H-pyrazole-4-carboxamide]	90	5
N#C[C@H]1C[C@@H](N2CCC23COC3)CC[C@@H]1n1cc(C(N)=O)c(Nc2ccc(Cl)cc2)n1 (single isomer, unassigned) [Example 28-146, 3-[(4-chlorophenyl)amino]-1-[(1S,2S,4S or 1R,2R,4R)-2-cyano-4-(6-oxa-1-azaspiro[3.3]hept-1-yl)cyclohexyl]-1H-pyrazole-4-carboxamide]	4	1
N#C[C@H]1CC(NCC(=O)O)CC[C@@H]1n1cc(C(N)=O)c(Nc2ccc(S(=O)(=O)C(F)(F)F)cc2)n1 (single isomer, unassigned) [Example 28-160, N-{(3S,4S or 3R,4R)-4-[4-carbamoyl-3-({4-[(trifluoro-methyl)sulfonyl]phenyl}amino)-1H-pyrazol-1-yl]-3-cyanocyclohexyl}glycine]	1	0.2
N#C[C@H]1C[C@H](O)CC[C@@H]1n1cc(C(N)=O)c(Nc2ccc([C@H](O)C(F)(F)F)cc2)n1 (single isomer, unassigned) [Example 25-13, 1-[(1S,2S,4R or 1R,2R,4S)-2-cyano-4-hydroxycyclohexyl]-3-({4-[(1S or 1R)-2,2,2-trifluoro-1-hydroxyethyl]phenyl}amino)-1H-pyrazole-4-carboxamide]	3	0.25
